Test results: patent US12383539B2 (Cavion, Inc., priority 2018, dated 2025)

Legend:
[1] = Healthy volunteer PK studies PN001/PN002 with IR capsules; type: in vivo, human
[2] = test system: patients with essential tremor; assay: T-CALM: Patient Global Impression of Change (PGIC); type: in vivo, human; conditions: for PGIC score, LS mean (SE) / PGIC score, LS mean difference from placebo (95% CI): ANCOVA
From the text: Treatment success as measured by PGIC was summarized using descriptive statistics.
The Patient Global Impression of Change (PGIC) will quantify a patient's impression of improvement or decline over time with respect to ET treatment (see, e.g., Guy, Assessment Manual for Psychopharmacology. Rockville, MD: Department of Health, Education, and Welfare Public Health Service Alcohol, Drug Abuse, and Mental Health Administration, 1976). The patient will use the PGIC scale to assess current health status versus initiation of treatment and calculate the difference.

[3] = test system: patients with essential tremor; assay: T-CALM: TETRAS performance subscale (TETRAS-PS); conditions: for TETRAS-PS total score, change from baseline to Day 28, LS mean difference from placebo (95% CI) / TETRAS-PS total score, change from baseline to Day 28, LS mean (SE): ANCOVA; for TETRAS-PS total score, change from baseline to Day 28, LS mean (SE): multiple imputation
[4] = test system: patients with essential tremor; assay: T-CALM: Clinical Global Impression of Improvement (CGI-I); type: in vivo, human
From the text: The Clinical Global Impressions Scale (CGI) was developed for use in NIMH-sponsored clinical trials to provide a brief, stand-alone assessment of the clinician's view of a patient's global functioning before and after initiating a study medication (Guy (ed.), ECDEU Assessment Manual for Psychopharmacology. Rockville, MD: US Department of Health, Education, and Welfare Public Health Service Alcohol, Drug Abuse, and Mental Health Administration; 1976). The CGI is a summary measure that takes into account all available information, including knowledge of the patient's history, psychosocial circumstances, symptoms, behavior, and the impact of the symptoms on the patient's ability to function. The CGI has two forms—the CGI-Severity, which rates illness severity at baseline, and the CGI-Improvement, which rates change from baseline.
The CGI-I consists of a single 7-point rating of total improvement or change from baseline CGI-S, regardless of whether or not the change is due entirely to drug treatment.
Treatment success as measured by CGI-I was summarized using descriptive statistics.
The Clinical Global Impressions Scale (CGI) generates a clinician's perception of a patient's functioning prior to and after study medication (see, e.g., Guy, Assessment Manual for Psychopharmacology. Rockville, MD: Department of Health, Education, and Welfare Public Health Service Alcohol, Drug Abuse, and Mental Health Administration, 1976). The CGI overall score considers patient history, psychosocial situations, symptoms and behavior with respect to the ability to function. The CGI-Improvement (CGI-I) will involve a single 7-point rating of total improvement or change from baseline CGI-Severity (CGI-S).

[5] = test system: patients with essential tremor; assay: T-CALM: Kinesia ONE accelerometry score; type: in vivo, human
From the text: Kinesia One platform is deployed in T-CALM as a digital marker of tremor severity. Kinesia One is FDA cleared for monitoring Parkinson's motor symptom severity with only limited data on assessment of tremor in ET patients. The algorithmically derived score was developed primarily in Parkinson's disease algorithms and has limited validation in ET (see, e.g., Hoffman et al., 2011 Conf Proc IEEE Eng Med Biol Soc. 2011:4378-81). The Kinesia One device is placed on the index finger of each ET patient and worn in the clinic after completion of the TETRAS Performance subscale. Four tasks are performed by the patient on the left and right sides to assess resting, postural, kinetic and lateral wing beating tremor. The Kinesia One score change in score from baseline to day 28 is evaluated as a secondary efficacy endpoint. The Kinesia One data is also utilized for exploratory analysis of efficacy on the change from baseline to day 15 for accelerometry score and for change from baseline on amplitude measures for days 15 and 28. Consistent finger sensor placement and consistent task execution are critical factors for valid Kinesia One scores.
Both sets of scores were statistically analyzed.

[6] = test system: patients with essential tremor; assay: PK/PD: Cmin exposure of CX-8998 vs change in TETRAS-PS (Hill equation); type: in vivo, human; conditions: steady state
From the text: Pharmacodynamic variables (Response) evaluated included change from baseline in TETRAS performance subscale, TETRAS activities of daily living, TETRAS total score.

[7] = Average of the single-dose studies (dose 16)

## CC(C)c1ccc(CC(=O)N[C@H](C)c2ccc(OCC(F)(F)F)cn2)cc1 [CX-8998]
[1]; [7]
  AUC0-24: 8.22 µM·h
  AUCinf: 13.2 µM·h
  Cmax: 1060 nM
[1]; PN001 Part 1, 16 mg, 1 dose
  AUC0-24: 8.52 µM·h
  AUCinf: 12.5 µM·h
[1]; PN001 Part 2, 18 mg, 1 dose
  AUC0-24: 9.93 µM·h
  AUCinf: 14.6 µM·h
[1]; PN001 Part 2, 18 mg, 1 dose, healthy volunteers
  Cmax: 1180 nM
[1]; PN002 Part 1, 18 mg, 1 dose
  AUC0-24: 9.44 µM·h
  AUCinf: 18.5 µM·h
[1]; PN002 Part 1, 18 mg, 1 dose, healthy volunteers
  Cmax: 1330 nM
[1]; PN002 Part 2, 12 mg, 1 dose
  AUC0-24: 4.99 µM·h
  AUCinf: 7.31 µM·h
[1]; PN002 Part 2, 12 mg, 1 dose, healthy volunteers
  Cmax: 798 nM
[1]; immediate release capsules, human subjects
  dose proportionality of plasma profiles: dose proportional in the 2-18 mg dose range
[2]; Day 15
  PGIC score 0-no change: subjects, number (%): 11 (28%)
  PGIC score 1-minimally improved: subjects, number (%): 17 (44%)
  PGIC score 2-much improved: subjects, number (%): 8 (21%)
  PGIC score 3-very much improved: subjects, number (%): 1 (3%)
  PGIC score (rescaled −3 to 3), Mean (SD): 1 (1.0)
  PGIC score (rescaled −3 to 3), Median (minimum, maximum): 1 (−2, 3)
  PGIC score −1-minimally worse: subjects, number (%): 1 (3%)
  PGIC score −2-much worse: subjects, number (%): 1 (3%)
  PGIC score −3-very much worse: subjects, number (%): 0
  PGIC score, LS mean (SE): 0.9 (0.17)
  PGIC score, LS mean difference from placebo (95% CI): 0.7 (0.2, 1.1)
[2]; Day 15, N = 39
  PGIC category 0 No change, number (%) of patients: 11 (28%)
  PGIC category 1 Minimally improved, number (%) of patients: 17 (44%)
  PGIC category 2 Much improved, number (%) of patients: 8 (21%)
  PGIC category 3 Very much improved, number (%) of patients: 1 (3%)
  PGIC category −1 Minimally worse, number (%) of patients: 1 (3%)
  PGIC category −2 Much worse, number (%) of patients: 1 (3%)
  PGIC category −3 Very much worse, number (%) of patients: 0
[2]; Day 15, total 39
  PGIC: No Change, number of subjects: 11
  PGIC: Worsened, number of subjects: 2
[2]; Day 28
  PGIC score 0-no change: subjects, number (%): 14 (36%)
  PGIC score 1-minimally improved: subjects, number (%): 10 (26%)
  PGIC score 2-much improved: subjects, number (%): 7 (18%)
  PGIC score 3-very much improved: subjects, number (%): 3 (8%)
  PGIC score (rescaled −3 to 3), Mean (SD): 1 (1.3)
  PGIC score (rescaled −3 to 3), Median (minimum, maximum): 1 (−3, 3)
  PGIC score −1-minimally worse: subjects, number (%): 1 (3%)
  PGIC score −2-much worse: subjects, number (%): 1 (3%)
  PGIC score −3-very much worse: subjects, number (%): 1 (3%)
  PGIC score, LS mean (SE): 0.8 (0.19)
  PGIC score, LS mean difference from placebo (95% CI): 0.4 (−0.1, 0.9)
[2]; Day 28, total 37
  PGIC: Improved, number of subjects: 20
  PGIC: No Change, number of subjects: 14
  PGIC: Worsened, number of subjects: 3
[2]; Day 28, N = 39
  PGIC category 0 No change, number (%) of patients: 14 (36%)
  PGIC category 1 Minimally improved, number (%) of patients: 10 (26%)
  PGIC category 2 Much improved, number (%) of patients: 7 (18%)
  PGIC category 3 Very much improved, number (%) of patients: 3 (8%)
  PGIC category −1 Minimally worse, number (%) of patients: 1 (3%)
  PGIC category −2 Much worse, number (%) of patients: 1 (3%)
  PGIC category −3 Very much worse, number (%) of patients: 1 (3%)
[3]; Day 15
  responders: improvement of at least 5 points by TETRAS-PS score, %: (30.8%)
[3]; Day 15, N = 39
  TETRAS-PS change from baseline 0 change: subjects, number (%): 2 (5.1%)
  TETRAS-PS change from baseline >0 to 1 point improvement: subjects, number (%): 3 (7.7%)
  TETRAS-PS change from baseline >0 to 1 point worsening: subjects, number (%): 2 (5.1%)
  TETRAS-PS change from baseline >1 to 2.5 point improvement: subjects, number (%): 4 (10.3%)
  TETRAS-PS change from baseline >1 to 2.5 point worsening: subjects, number (%): 5 (12.8%)
  TETRAS-PS change from baseline >2.5 to 5 point improvement: subjects, number (%): 10 (25.6%)
  TETRAS-PS change from baseline >2.5 to 5 point worsening: subjects, number (%): 2 (5.1%)
  TETRAS-PS change from baseline >5 to 10 point improvement: subjects, number (%): 8 (20.5%)
  TETRAS-PS change from baseline >5 to 10 point worsening: subjects, number (%): 0
  TETRAS-PS change from baseline >10 point improvement: subjects, number (%): 3 (7.7%)
  TETRAS-PS change from baseline >10 point worsening: subjects, number (%): 0
[3]; Day 28
  responders: improvement of at least 5 points by TETRAS-PS score, %: (43.2%)
[3]; Day 28, N 37
  responders: improvement of at least 5 points by TETRAS-PS score, number: 16
[3]; Day 28, N = 37
  TETRAS-PS change from baseline 0 change: subjects, number (%): 1 (2.6%)
  TETRAS-PS change from baseline >0 to 1 point improvement: subjects, number (%): 6 (15.4%)
  TETRAS-PS change from baseline >0 to 1 point worsening: subjects, number (%): 2 (5.1%)
  TETRAS-PS change from baseline >1 to 2.5 point improvement: subjects, number (%): 5 (12.8%)
  TETRAS-PS change from baseline >1 to 2.5 point worsening: subjects, number (%): 1 (2.6%)
  TETRAS-PS change from baseline >2.5 to 5 point improvement: subjects, number (%): 11 (28.2%)
  TETRAS-PS change from baseline >2.5 to 5 point worsening: subjects, number (%): 1 (2.6%)
  TETRAS-PS change from baseline >5 to 10 point improvement: subjects, number (%): 8 (20.5%)
  TETRAS-PS change from baseline >5 to 10 point worsening: subjects, number (%): 0
  TETRAS-PS change from baseline >10 point improvement: subjects, number (%): 4 (10.3%)
  TETRAS-PS change from baseline >10 point worsening: subjects, number (%): 0
[3]; Day 28, analysis of Example 25
  TETRAS-PS scored by investigators (in person), change from baseline, LS mean (±SE): −4.8±0.80
[3]; Day 28, primary endpoint
  TETRAS-PS scored by independent video raters, change from baseline, LS mean (±SE): −1.8±0.81
[3]; Day 28, Investigator Rated
  TETRAS-PS total score, Mean (SD): 23.6 (5.50)
[3]; Independent Video Raters
  TETRAS-PS total score, change from baseline to Day 28, Mean (SD): −1.6 (4.36)
  TETRAS-PS total score, change from baseline to Day 28, Median: −1.5
  TETRAS-PS total score, change from baseline to Day 28, LS mean difference from placebo (95% CI): 0.5 (−1.5, 2.5)
  TETRAS-PS total score, change from baseline to Day 28, LS mean (SE): −1.8 (0.81)
[3]; Investigator Rated
  TETRAS-PS total score, change from baseline to Day 28, LS mean difference from placebo (95% CI): −2.0 (−4.0, 0.0)
  TETRAS-PS total score, change from baseline to Day 28, LS mean (SE): −4.8 (0.80)
[3]; subgroup No Concurrent Tremor Medication at Day 1, Independent Video Raters
  TETRAS-PS total score, change from baseline to Day 28, Mean (SD): −2.5 (5.33)
[4]; Day 15
  CGI-I score 0-no change: subjects, number (%): 14 (36%)
  CGI-I score 1-minimally improved: subjects, number (%): 19 (49%)
  CGI-I score 2-much improved: subjects, number (%): 6 (15%)
  CGI-I score 3-very much improved: subjects, number (%): 0
  CGI-I score −1-minimally worse: subjects, number (%): 0
  CGI-I score −2-much worse: subjects, number (%): 0
  CGI-I score −3-very much worse: subjects, number (%): 0
  responders: improvement by CGI-I, %: (64.1%)
[4]; Day 15, N = 39
  CGI-I category 0 No change, number (%) of patients: 14 (36%)
  CGI-I category 1 Minimally improved, number (%) of patients: 19 (49%)
  CGI-I category 2 Much improved, number (%) of patients: 6 (15%)
  CGI-I category 3 Very much improved, number (%) of patients: 0
  CGI-I category −1 Minimally worse, number (%) of patients: 0
  CGI-I category −2 Much worse, number (%) of patients: 0
  CGI-I category −3 Very much worse, number (%) of patients: 0
[4]; Day 28
  CGI-I score 0-no change: subjects, number (%): 13 (33%)
  CGI-I score 1-minimally improved: subjects, number (%): 15 (38%)
  CGI-I score 2-much improved: subjects, number (%): 9 (23%)
  CGI-I score 3-very much improved: subjects, number (%): 0
  CGI-I score (rescaled −3 to 3), Mean (SD): 1 (0.8)
  CGI-I score (rescaled −3 to 3), Median (minimum, maximum): 1 (0, 2)
  CGI-I score −1-minimally worse: subjects, number (%): 0
  CGI-I score −2-much worse: subjects, number (%): 0
  CGI-I score −3-very much worse: subjects, number (%): 0
  responders: improvement by CGI-I, %: (64.9%)
[4]; Day 28, total 37
  CGI-I: No Change, number of subjects: 13
  CGI-I: Worsened, number of subjects: 0
[4]; Day 28, ANCOVA
  CGI-I score, LS mean (SE): 1.0 (0.13)
  CGI-I score, LS mean difference from placebo (95% CI): 0.6 (0.3, 0.9)
[4]; Day 28, N = 39
  CGI-I category 0 No change, number (%) of patients: 13 (33%)
  CGI-I category 1 Minimally improved, number (%) of patients: 15 (38%)
  CGI-I category 2 Much improved, number (%) of patients: 9 (23%)
  CGI-I category 3 Very much improved, number (%) of patients: 0
  CGI-I category −1 Minimally worse, number (%) of patients: 0
  CGI-I category −2 Much worse, number (%) of patients: 0
  CGI-I category −3 Very much worse, number (%) of patients: 0
[5]; Day 15
  Kinesia ONE total score, Median: 7.9
  Kinesia ONE total score, change from baseline, Median: −1.1
[5]; Day 15 and Day 28
  Kinesia ONE score vs placebo: did not show a significant difference
[5]; Day 28
  Kinesia ONE total score, Median: 7.8
  Kinesia ONE total score, change from baseline, Median: −0.7
[6]
  Emax, change from baseline in TETRAS-PS (Hill equation): approximately −4.1
